Results taken from patent publication US6518005B2, “Silver halide multilayer color photographic material” (Ferrania, S.p.A., priority 2000, dated 2003).

Tests used:
[1] = Absorption of methanol solutions of the dyes (λmax and density at 400, 450, 500 nm); format: physicochemical; details: for D400: density measured at 400 nm; for D400 / D450 / D500: methanol solution with density 0.6 at λmax; for D450: density measured at 450 nm; for D500: density measured at 500 nm; for λmax (nm): methanol solution, density 0.6 at λmax; for spectral region absorbed (in words): methanol solutions, from the data of Table 1
[2] = Solubility in tricresylphosphate and crystallization tendency on cooling; format: physicochemical; details: for Solubility: in tricresylphosphate, under stirring at 60° C.; for Not-to-Crystallize Tendency: tricresylphosphate solution cooled at room temperature
Protocol: The compounds shown in Table 2 were added with a quantity of tricresylphosphate under stirring at 60° C. up to obtain a limpid solution. The samples were then cooled at room temperature and the crystallization tendency thereof was evaluated.

Row | Structure (SMILES) | D400 [1] | D450 [1] | D500 [1] | λmax (nm) [1] [nm] | spectral region absorbed (in words) ([1]; listed as Sample 11) | Solubility [2] | Not-to-Crystallize Tendency [2] | spectral region absorbed (in words) ([1]; listed as Sample 12) | spectral region absorbed (in words) [1] | Not-to-Crystallize Tendency ([2]; listed as Sample 7)
1 | CCCCS(=O)(=O)Nc1ccc(C2=NOC(=O)/C2=C\C2CN(CCC(=O)OCC)c3ccccc32)cc1 (single isomer, unassigned) [B] | 0.09 | 0.53 | 0.10 | 463 |  |  |  |  | mainly absorb in the blue region, but that the green region (500-600 nm) is also interested | 
2 | CCCCS(=O)(=O)Nc1ccc(C2=NOC(=O)/C2=C\C2CN(CCC(=O)OCC)c3ccccc32)cc1 (centres unmarked) [C] | 0.45 | 0.03 | 0.00 | 377 | mainly absorb in the ultraviolet |  |  |  |  | 
3 | CCCCS(=O)(=O)Nc1ccc(C2=NOC(=O)/C2=C\C2CN(CCC(=O)OCC)c3ccccc32)cc1 (centres unmarked) [Compound G] | 0.27 | 0.55 | 0.00 | 438 |  | good | not good |  |  | 
4 | CCCCS(=O)(=O)Nc1ccc(C2=NOC(=O)/C2=C\C2CN(CCC(=O)OCC)c3ccccc32)cc1 (centres unmarked) [D] | 0.35 | 0.00 | 0.00 | 374 |  |  |  | mainly absorb in the ultraviolet |  | 
5 | CCCCS(=O)(=O)Nc1ccc(C2=NOC(=O)/C2=C\C2CN(CCC(=O)OCC)c3ccccc32)cc1 (centres unmarked) [E] | 0.26 | 0.50 | 0.00 | 437 |  | good | not good |  |  | 
6 | CCCCS(=O)(=O)Nc1ccc(C2=NOC(=O)/C2=C\C2CN(CCC(=O)OCC)c3ccccc32)cc1 (centres unmarked) [F] | 0.28 | 0.54 | 0.00 | 437 |  | good | not good |  |  | 

Second part, led by results:

Row | D400 [1] | D450 [1] | D500 [1] | λmax (nm) [1] [nm] | spectral region absorbed (in words) ([1]; listed as Sample 11) | Solubility [2] | Not-to-Crystallize Tendency [2] | spectral region absorbed (in words) ([1]; listed as Sample 12) | Structure (SMILES) | spectral region absorbed (in words) [1] | Not-to-Crystallize Tendency ([2]; listed as Sample 7)
7 | 0.52 | 0.17 | 0.00 | 415 |  |  |  |  | C=CCn1cccc1/C=C1\C(=O)ON=C1C(C)(C)C [Compound I-6] |  | 
8 | 0.47 | 0.21 | 0.00 | 419 |  |  |  |  | CCOC(=O)Cn1cccc1/C=C1\C(=O)ON=C1c1ccc(OC)cc1 [Compound I-5] |  | 
9 | 0.44 | 0.22 | 0.00 | 420 |  |  |  |  | CCOC(=O)CCn1cccc1/C=C1\C(=O)ON=C1c1ccc(OC)cc1 [Compound I-4] |  | 
10 | 0.41 | 0.24 | 0.00 | 421 |  |  |  |  | C=CCn1cccc1/C=C1\C(=O)ON=C1c1ccc(NS(=O)(=O)CCCC)cc1 [Compound I-2] |  | 
11 | 0.42 | 0.03 | 0.00 | 423 |  |  | good |  | CCCCS(=O)(=O)Nc1ccc(C2=NOC(=O)/C2=C\c2cccn2C(CC)C(=O)OCCOCC)cc1 (centres unmarked) [Compound I-7] |  | do not exhibit any tendency to crystallize
12 | 0.48 | 0.08 | 0.00 | 418 |  |  |  |  | COc1ccc(C2=NOC(=O)/C2=C\c2ccc[nH]2)cc1 [Compound I-3] |  | 
